Patent publication US8716242B2, “β-hairpin peptidomimetics” (priority 2009, dated 2014)
Read-outs that look alike come from different tables or passages of the source. Bridge positions count the residues as written; N and C are the ends. Square brackets hold non-standard residues; d marks the D form. Peptide text beside a SMILES is read from it. * marks the point of attachment. Benzoyl(4-dodecyloxy) = CCCCCCCCCCCCOc1ccc(C(=O)*)cc1; Benzoyl(4-octyloxy) = CCCCCCCCOc1ccc(C(=O)*)cc1; Stearoyl = CCCCCCCCCCCCCCCCCC(=O)*; Myristoyl = CCCCCCCCCCCCCC(=O)*; Lauroyl = CCCCCCCCCCCC(=O)*; Decanoyl = CCCCCCCCCC(=O)*; Dab = NCC[C@H](N)C(=O)O

Legend:
[1] = Cytotoxicity, MTT reduction assay, COS-7 cells; type: cell-based; conditions: African green monkey, COS-7 cells (CRL-1651), 12.5-50 μM
Summary of the method: (§1)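 HELA (4000/well) and COS-7 (3400/well) cells were grown 24 h, then exposed 48 h at 37° C to peptides at 12.5, 25 and 50 μM in triplicate. MTT reduction read at 595 nm; growth % relative to time-zero, and GI50 interpolated by trend line.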

[2] = Plasma stability in mouse plasma; type: in vitro ADME; conditions: for mouse pl. T1/2 / half-life at 10 μM: up to 1440 min; for half-life at 10 μM: read-out: mouse pl. T1/2
Summary of the method: (§2)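 Peptides (1 mM DMSO/H2O stock) were spiked into human or mouse plasma in triplicate and incubated at 37 °C, sampling from 0 to 1440 min. Samples were quenched in formic acid/acetonitrile and analysed by LC/MS MRM. Remaining percent of t=0 was calculated and T1/2 derived by trend fitting.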

[3] = Cytotoxicity, MTT reduction assay, HELA cells; type: cell-based; conditions: human, HELA cells (Acc57), 12.5-50 μM
Summary of the method: as §1

[4] = Plasma stability in human plasma; type: in vitro ADME; conditions: for human pl. T1/2 / half-life at 10 μM: up to 1440 min; for half-life at 10 μM: read-out: human pl. T1/2
Summary of the method: as §2

[5] = target: T1, human CXCR4 (Homo sapiens, UniProt P61073); test: Ca2+-assay: CXCR4-antagonizing activity (SDF-1 induced calcium mobilization); type: cell-based
T1 construct: expressed in transfected cells; host or cells: mouse pre-B cell line 300-19
Description: 2.3. Ca^2+-Assay: CXCR4-Antagonizing Activity of the Peptides
Increases in intracellular calcium were monitored using a Flexstation 384 (Molecular Devices, Sunnyvale, Calif.) to assay the peptides for CXCR4 antagonism in a mouse pre-B cell line 300-19 stably transfected with human CXCR4 (E. Oberlin, A. Amara, F. Bachelerie, C. Bessia, J.-L. Virelizier, F. Arenzana-Seisdedos, O, Schwartz, J.-M. Heard, I. Clark-Lewis, D. F. Legler, M. Loetscher, M. Baggiolini, B. Moser, Nature 1996, 382, 833-835; M. Loetscher, T. Geiser, T. O'Reilly, R. Zwalen, M. Baggiolini, B. Moser, J. Biol. Chem. 1994, 269, 232-237; M. D'Apuuo, A. Rolink, M. Loetscher, J. A. Hoxie, I. Clark-Lewis, F. Melchors, M. Baggiolini, B. Moser, Eur. J. Immunol. 1997, 27, 1788-1793). The cells were batch loaded with the Calcium 4 Assay kit (Molecular Devices) in assay buffer (Hanks Balanced salt solution [HBSS], 20 mM HEPES, pH 7.4, 0.1% BSA) for 1 h at room temperature and labeled cells were dispensed into black well assays plates (Costar No. 3603). Calcium mobilization induced by stromal-derived factor-1 (SDF-1) was measured in the Flexstation 384 (excitation: 485 nm; emission: 525 nm) for 90 seconds. Antagonist activity of peptides was determined by spiking the cells with compounds prior to SDF-1 addition. Dose response curves (compound concentration versus % maximum response for SDF-1) were determined for each antagonist and IC50 values were calculated by fitting the data to a four parameter logistic equation using SoftmaxPro 4.8 (Molecular Devices).

[6] = tested on: human red blood cells (hRBC); test: Hemolysis of human red blood cells; type: cell-based; conditions: 20% hRBC, 1 h, 37° C.
Protocol: The peptides were tested for their hemolytic activity against human red blood cells (hRBC). Fresh hRBC were washed three times with phosphate buffered saline (PBS) and centrifuged for 10 min at 2000×g. Compounds (100 μM) were incubated with 20% hRBC (v/v) for 1 h at 37° C. and shaking at 300 rpm. The final erythrocyte concentration was approximately 0.9×10^9 cells/mL. A value of 0% and 100% cell lyses, respectively, was determined by incubation of hRBC in the presence of PBS containing 0.001% acetic acid and 2.5% Triton X-100 in H2O, respectively. The samples were centrifuged, the supernatants were 8-fold diluted in PBS buffer and the optical densities (OD) were measured at 540 nm. The 100% lyses value (OD540H2O) gave an OD540 of approximately 0.5-1.0.
Percent hemolysis was calculated as follows: (OD540peptide/OD540H2O)×100%. 2.6. Plasma Stability

[7] = mouse plasma, 37° C., 1440 min, read-out: mouse pl. cpd left at 1440 min
[8] = human plasma, 37° C., 1440 min, read-out: human pl. cpd left at 1440 min
[9] = mouse pre-B cell line 300-19 transfected with human CXCR4, SDF-1 induced Ca2+ mobilization, read-out: IC50% [nM] ± SD, CXCR4 receptor

T1 sequence (P61073 whole entry): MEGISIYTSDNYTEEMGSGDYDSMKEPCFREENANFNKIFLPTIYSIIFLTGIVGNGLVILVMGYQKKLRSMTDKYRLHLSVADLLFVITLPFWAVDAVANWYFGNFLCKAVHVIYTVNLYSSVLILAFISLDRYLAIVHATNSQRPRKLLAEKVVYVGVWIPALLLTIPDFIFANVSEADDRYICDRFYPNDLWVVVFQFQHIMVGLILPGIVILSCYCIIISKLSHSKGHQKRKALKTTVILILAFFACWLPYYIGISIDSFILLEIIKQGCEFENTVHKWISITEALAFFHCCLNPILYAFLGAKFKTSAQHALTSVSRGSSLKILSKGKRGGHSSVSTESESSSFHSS

Structure (SMILES) | GI50 at 48 h [1] [µM] | remaining at 24 h, 10 μM [2, 7] [%] | mouse pl. T1/2 ([2]; mouse plasma, 37° C.) [h] | GI50 at 48 h [3] [µM] | remaining at 24 h, 10 μM [4, 8] [%] | human pl. T1/2 ([4]; human plasma, 37° C.) [h] | IC50 [5, 9] [nM] | Hemolysis at 100 μM [6] [%] | half-life at 10 μM ([2]; mouse plasma, 37° C.) [h] | remaining at 24 h, 10 μM ([2]; mouse, plasma) [%] | half-life at 10 μM ([4]; human plasma, 37° C.) [h] | remaining at 24 h, 10 μM ([4]; human, plasma) [%] | IC50 [5] [nM]
CCCCCCCCCC(=O)NCC[C@@H]1NC(=O)[C@H](Cc2ccc(O)cc2)NC(=O)[C@@H]2CSSC[C@H](NC(=O)[C@H](C)NC(=O)[C@H](Cc3c[nH]cn3)NC(=O)[C@H](Cc3ccc(O)cc3)NC(=O)[C@@H]3CCCN3C(=O)[C@H]3CCCN3C(=O)[C@H](CCCCN)NC1=O)C(=O)N[C@@H](CCCNC(=N)N)C(=O)N[C@@H](C)C(=O)N1CCC[C@@H]1C(=O)N[C@@H](CCN)C(=O)N[C@@H](CCCNC(=N)N)C(=O)N[C@@H](Cc1ccc(O)cc1)C(=O)N2 [Ex. 10] (cyclo(YHACRA[dP][Dab]RYCY[Dab](Decanoyl)K[dP]P); disulfide 4-11) | > 50 | 63 | 24 | > 50 | 85 | 24 | 8.1 ± 0.9 | 1.0 |  |  |  |  | 
CCCCCCCCCC(=O)NCCCC[C@@H]1NC(=O)[C@H](Cc2ccc(O)cc2)NC(=O)[C@@H]2CSSC[C@H](NC(=O)[C@H]([C@@H](C)O)NC(=O)[C@H](Cc3c[nH]cn3)NC(=O)[C@H](Cc3ccc(O)cc3)NC(=O)[C@@H]3CCCN3C(=O)[C@@H](Cc3ccc(O)cc3)NC(=O)[C@H](CCCCN)NC1=O)C(=O)N[C@@H](CCCNC(=N)N)C(=O)N[C@@H](C)C(=O)N1CCC[C@@H]1C(=O)N[C@@H](CCN)C(=O)N[C@@H](CCCNC(=N)N)C(=O)N[C@@H](Cc1ccc(O)cc1)C(=O)N2 [Ex. 16] (cyclo(YHTCRA[dP][Dab]RYCYK(Decanoyl)K[dY]P); disulfide 4-11) | > 50 |  |  | > 50 |  |  | 18.2 ± 11 | 0.5 | 10.3 | 35 | 19.9 | 48 | 
CCCCCCCCOc1ccc(C(=O)NCCCC[C@@H]2NC(=O)[C@H](Cc3ccc(O)cc3)NC(=O)[C@@H]3CSSC[C@H](NC(=O)[C@H](C)NC(=O)[C@H](Cc4c[nH]cn4)NC(=O)[C@H](Cc4ccc(O)cc4)NC(=O)[C@@H]4CCCN4C(=O)[C@H]4CCCN4C(=O)[C@H](CCCCN)NC2=O)C(=O)N[C@@H](CCCNC(=N)N)C(=O)N[C@@H](C)C(=O)N2CCC[C@@H]2C(=O)N[C@@H](CCN)C(=O)N[C@@H](CCCNC(=N)N)C(=O)N[C@@H](Cc2ccc(O)cc2)C(=O)N3)cc1 [Ex. 23] (cyclo(YHACRA[dP][Dab]RYCYK(Benzoyl(4-octyloxy))K[dP]P); disulfide 4-11) | > 50 | 74 | 24 | > 22 | 100 | 24 |  | 7.8 |  |  |  |  | 8.3 ± 3.2
CCCCCCCCCC(=O)NCCCC[C@@H]1NC(=O)[C@H](Cc2ccc(O)cc2)NC(=O)[C@@H]2CSSC[C@H](NC(=O)[C@H]([C@@H](C)O)NC(=O)[C@H](Cc3c[nH]cn3)NC(=O)[C@H](Cc3ccc(O)cc3)NC(=O)[C@@H]3CCCN3C(=O)[C@H]3CCCN3C(=O)[C@H](CCCCN)NC1=O)C(=O)N[C@@H](CCCNC(=N)N)C(=O)N[C@@H](C)C(=O)N[C@H](Cc1ccc(O)cc1)C(=O)N[C@@H](CCN)C(=O)N[C@@H](CCCNC(=N)N)C(=O)N[C@@H](Cc1ccc(O)cc1)C(=O)N2 [Ex. 14] (cyclo(YHTCRA[dY][Dab]RYCYK(Decanoyl)K[dP]P); disulfide 4-11) | > 50 | 23 |  | > 50 | 91 | 24 | 40.8 ± 12 | 0.6 | 9.42 |  |  |  | 
CCCCCCCCCCCCCCCCCC(=O)NCCCC[C@@H]1NC(=O)[C@H](Cc2ccc(O)cc2)NC(=O)[C@@H]2CSSC[C@H](NC(=O)[C@H](Cc3ccc(O)cc3)NC(=O)[C@H](Cc3c[nH]cn3)NC(=O)[C@H](Cc3ccc(O)cc3)NC(=O)[C@@H]3CCCN3C(=O)[C@H]3CCCN3C(=O)[C@H](CCCCN)NC1=O)C(=O)N[C@@H](CO)C(=O)N[C@@H](C)C(=O)N1CCC[C@@H]1C(=O)N[C@@H](CCN)C(=O)N[C@@H](CCCNC(=N)N)C(=O)N[C@@H](Cc1ccc(O)cc1)C(=O)N2 [Ex. 22] (cyclo(YHYCSA[dP][Dab]RYCYK(Stearoyl)K[dP]P); disulfide 4-11) | > 50 | 82 | 24 | > 35 | 72 | 24 | 7.3 ± 3 | 9.6 |  |  |  |  | 
CCCCCCCCCCCCCC(=O)NCCCC[C@@H]1NC(=O)[C@H](Cc2ccc(O)cc2)NC(=O)[C@@H]2CSSC[C@H](NC(=O)[C@H](Cc3ccc(O)cc3)NC(=O)[C@H](Cc3c[nH]cn3)NC(=O)[C@H](Cc3ccc(O)cc3)NC(=O)[C@@H]3CCCN3C(=O)[C@H]3CCCN3C(=O)[C@H](CCCCN)NC1=O)C(=O)N[C@@H](CO)C(=O)N[C@@H](C)C(=O)N1CCC[C@@H]1C(=O)N[C@@H](CCN)C(=O)N[C@@H](CCCNC(=N)N)C(=O)N[C@@H](Cc1ccc(O)cc1)C(=O)N2 [Ex. 18] (cyclo(YHYCSA[dP][Dab]RYCYK(Myristoyl)K[dP]P); disulfide 4-11) | > 50 | 78 | 24 | > 25 | 71 | 24 | 15.7 ± 3.9 | 9.2 |  |  |  |  | 
CCCCCCCCCCCCOc1ccc(C(=O)NCCCC[C@@H]2NC(=O)[C@H](Cc3ccc(O)cc3)NC(=O)[C@@H]3CSSC[C@H](NC(=O)[C@H](Cc4ccc(O)cc4)NC(=O)[C@H](Cc4c[nH]cn4)NC(=O)[C@H](Cc4ccc(O)cc4)NC(=O)[C@@H]4CCCN4C(=O)[C@H]4CCCN4C(=O)[C@H](CCCCN)NC2=O)C(=O)N[C@@H](CO)C(=O)N[C@@H](C)C(=O)N2CCC[C@@H]2C(=O)N[C@@H](CCN)C(=O)N[C@@H](CCCNC(=N)N)C(=O)N[C@@H](Cc2ccc(O)cc2)C(=O)N3)cc1 [Ex. 24] (cyclo(YHYCSA[dP][Dab]RYCYK(Benzoyl(4-dodecyloxy))K[dP]P); disulfide 4-11) | > 50 | 22 |  | > 29 | 24 |  |  | 10.9 | 9.27 |  | 2.12 |  | 6.1 ± 4.5
CCCCCCCCCCCC(=O)NCC[C@@H]1NC(=O)[C@H](Cc2ccc(O)cc2)NC(=O)[C@@H]2CCCN2C(=O)[C@H]2CCCN2C(=O)[C@H](CCCCN)NC(=O)[C@H](CCC(N)=O)NC(=O)[C@H](Cc2ccc(O)cc2)NC(=O)[C@@H]2CSSC[C@H](NC(=O)[C@H](C)NC1=O)C(=O)N[C@@H](CCCNC(=N)N)C(=O)N[C@@H](C)C(=O)N1CCC[C@@H]1C(=O)N[C@@H](CCN)C(=O)N[C@@H](CCCNC(=N)N)C(=O)N[C@@H](Cc1ccc(O)cc1)C(=O)N2 [Ex. 1] (cyclo(Y[Dab](Lauroyl)ACRA[dP][Dab]RYCYQK[dP]P); disulfide 4-11) | > 50 | 77 | 24 | > 28 | 87 | 24 | 94 ± 2.1 | 2.6 |  |  |  |  | 
